US20160279263A1, “DRUG DELIVERY COMPOSITIONS AND METHODS TARGETING P-GLYCOPROTEIN” (CORNELL UNIVERSITY, priority 2012, published 2016)

Target: T1, P-gp (Homo sapiens, UniProt P08183)
T1 construct: expressed in transfected cells; host or cells: MDA-435/LCC6 MDR cells, with MDA-435/LCC6 WT as the P-gp-negative comparison
Test: FACS accumulation/efflux in MDA-435/LCC6 MDR cells compared with WT cells
Assay type: cell-based
Source text: Before tests were initiated, P-gp expression in both MDR and WT cells was confirmed by Western blot, which confirmed the expression of P-gp in the MDR cells and the lack of expression in WT cells. The protein band in the MDR cells was visible around the molecular weight of P-gp, 170 kDa, which correlates to the reported molecular weight of the protein.
No differences in P-gp function were observed. […] Statistics represent the significance differences in WT/MDR accumulation ratio at a p-value of <0.01.

T1 sequence (P08183 whole entry): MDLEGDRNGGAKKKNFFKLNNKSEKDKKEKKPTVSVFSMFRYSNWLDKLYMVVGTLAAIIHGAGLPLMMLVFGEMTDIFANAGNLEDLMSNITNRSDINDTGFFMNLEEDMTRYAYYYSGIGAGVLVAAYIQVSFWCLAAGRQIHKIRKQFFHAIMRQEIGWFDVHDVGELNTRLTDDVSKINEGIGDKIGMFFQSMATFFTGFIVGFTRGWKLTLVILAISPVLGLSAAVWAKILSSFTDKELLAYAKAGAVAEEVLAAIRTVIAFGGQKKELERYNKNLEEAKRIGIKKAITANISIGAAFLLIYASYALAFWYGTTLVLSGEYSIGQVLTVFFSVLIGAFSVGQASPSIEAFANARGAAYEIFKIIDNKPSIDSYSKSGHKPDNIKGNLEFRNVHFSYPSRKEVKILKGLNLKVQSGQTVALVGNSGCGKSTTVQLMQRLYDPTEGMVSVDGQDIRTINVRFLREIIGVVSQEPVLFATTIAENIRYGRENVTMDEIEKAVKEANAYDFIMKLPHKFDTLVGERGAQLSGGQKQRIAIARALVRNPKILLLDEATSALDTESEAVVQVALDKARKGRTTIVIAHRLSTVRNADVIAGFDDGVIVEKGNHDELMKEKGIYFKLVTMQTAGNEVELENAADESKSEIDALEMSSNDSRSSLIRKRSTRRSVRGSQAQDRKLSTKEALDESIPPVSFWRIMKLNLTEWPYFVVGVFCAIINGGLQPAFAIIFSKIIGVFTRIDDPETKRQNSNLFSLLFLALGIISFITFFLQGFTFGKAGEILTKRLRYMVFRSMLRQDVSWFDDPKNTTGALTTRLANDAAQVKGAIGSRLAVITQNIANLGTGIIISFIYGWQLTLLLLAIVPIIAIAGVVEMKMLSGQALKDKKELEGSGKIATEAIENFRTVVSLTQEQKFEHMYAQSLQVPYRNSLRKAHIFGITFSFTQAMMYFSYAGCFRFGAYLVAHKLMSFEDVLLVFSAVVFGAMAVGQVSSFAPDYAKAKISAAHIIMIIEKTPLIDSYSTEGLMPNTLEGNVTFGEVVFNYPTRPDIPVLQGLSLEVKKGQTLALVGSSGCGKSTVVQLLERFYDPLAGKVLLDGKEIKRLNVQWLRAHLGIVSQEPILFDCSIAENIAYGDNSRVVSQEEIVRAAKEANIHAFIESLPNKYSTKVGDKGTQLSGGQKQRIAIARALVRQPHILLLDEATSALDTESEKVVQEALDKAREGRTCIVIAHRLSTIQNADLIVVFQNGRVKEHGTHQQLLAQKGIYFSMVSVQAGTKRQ

accumulation in MDR cells at 4° C. (4° C. relative to 37° C.): increase
Substance: Rhodamine 123 [free Rho123]
WT to MDR accumulation ratio with verapamil (5, 25, 50, 75 and 100 μM verapamil, mode fluorescence): increase in accumulation ratio with increasing verapamil concentration
